From US5168102A, “Endocrine manipulation to improve body composition of poultry” (priority 1990, dated 1992)
Several values for one entry are separate records, joined by “and”; a condition that tells them apart may be missing. Equal entries are not always repeated. Entries after “also recorded” stand apart in the source; their conditions may differ.

Columns and labels:
receptor = settings: cited from earlier work
[1] = exogenous; cited from earlier work
[2] = Example 1: growth and feed efficiency of broiler cockerels fed thyroid-active substances with or without daily ncGH injection; assay type: in vivo, broiler cockerels (Ross X Arbor Acre strain)
Source text: The purpose of this study was to determine the effect manipulating blood levels of thyroid hormones and/or growth hormone on growth performance and body composition of broiler chickens. […] Purified natural chicken growth hormone (ncGH) was obtained from the Research and Education Center, Harbor-UCLA Medical Center, Torrance, Calif. […] The premix (200 g) was then used to prepare 50 kg batches of each experimental diet according to the formula for broiler-finisher ration described in Table 1. The diet containing 0.5% PTU was prepared by mixing 250 g of PTU into 49.75 kg of the basal ration (Table 1).
Broiler cockerels (Ross X Arbor Acre strain) were raised to 3 weeks-of-age in a battery-brooder and then transferred to wire grow-out cages (4 birds/pen) held in two controlled-environment rooms (10 pens/room). Beginning at 3 weeks of age, eight birds (2 pens of 4 birds) were randomly assigned to each of 10 treatments. The chickens were provided the experimental diets and water ad libitum. […] For injection, the ncGH was reconstituted in sterile 0.025M sodium bicarbonate buffer (pH 9.8). The 10 treatments were administered for 21 days (i.e., from 3 to 6 weeks of age).
Measurement of body weight and feed consumption at weekly intervals allowed calculation of the average daily gain (ADG, g/bird/day), average daily feed consumption (ADFC, g/bird/day) and the feed-to-gain ratio (FIG, kg feed/kg gain) over the 21 day experimental period. Blood samples were taken each week (4, 5, and 6 weeks) just before (pre-injection) and 4 hours post-injection of ncGH. […] At the conclusion of the study, birds were killed and the carcasses frozen for proximate analysis. The frozen carcasses were ground in a meat grinder and aliquots of each ground carcass taken for determination of moisture, protein, fat and ash by established analytical procedures (Official Method of Analysis, Edition 13, W. Horwitz ed., Association of Official Analytical Chemist, Washington, D.C., 1980). Body composition data are presented as a percent of live weight at 6 weeks-of-age. Least squares regression analysis was used to test for significant differences (P<0.05) due treatment.

[3] = supplemented diets; cited from earlier work
[4] = Example 3: final body weight and relative weights of liver, abdominal fat and muscles; assay type: in vivo, broiler cockerels
Method: Day-old broiler cockerels were randomly assigned to 24 pens (5 birds/pen) in a battery brooder. The total duration of the bird management period lasted from 7 to 8 weeks. Hereafter, the end of the first week of life of the birds is referred to as week no. 1 (i.e. 7 days of life), the end of the second week as week no. 2, etc. At week no. 3, four birds from each pen were transferred to wire grow-out cages. […] 5 to week no. 7 (4 pens/treatment). Body weight and feed consumption were determined at weekly intervals. A 5 ml blood sample was obtained from each bird at week no. 7 and stored at -20° C. until assayed for plasma hormones.
At week no. 7 (49 days-of-age), one-half of the birds (8 birds/treatment) were killed for measurement of the abdominal fat pad and liver weights. The muscles were removed, weighed, frozen in liquid N2 and stored at -20° C. until analyzed. At 51 days-of-age, groups of 4 birds per treatment were given a subcutaneous infusion of 4 μCi/Kg of 14C-L-tyrosine emulsified in sesame seed oil and immediately placed in metabolism cages. The expired CO2 was trapped in 15 ml of scrubbing solution (1:2 ethanolamine/methyl cellusolve) and the tubes were changed every 15 minutes for 90 minutes. At 90 minutes, the birds were removed from the metabolism cages and blood was obtained via cardiac puncture. Birds were then sacrificed by cervical dislocation and the muscles were removed, weighed, frozen in liquid N2 and stored at -20° C. until analyzed. Radioactivity in the samples containing trapped CO2 was counted for 10 minutes using a liquid scintillation spectrophotometer. At 54 days-of-age, groups of 4 birds per treatment were killed, the muscles were dissected, weighed, and frozen until analyzed.
The right breast muscle, i.e. BM (Pectoralis major) and right leg muscles, i.e. LM (gastrocnemius and peroneus longus) were dissected out from the birds, weighed and immediately frozen in liquid nitrogen and stored at -20° C. until analyzed for tyrosine content as specific radioactivity of tyrosine. All muscle tissues were analyzed for protein content; only tissues from isotope experiments were analyzed for tyrosine content as specific radioactivity of tyrosine.

[5] = Example 2: final body weight, liver, abdominal fat and body composition; assay type: in vivo, broiler cockerels (Ross X Arbor Acre)
Method: Forty-eight 3-week-old broiler cockerels (Ross X Arbor Acre) were randomly divided into four treatment groups that contained three pens of four birds. The birds were housed in a controlled-environment room under a 20 hour light/4 hour dark cycle with feed and water provided ad libitum.
The preparation of ncGH used in this study was from the same lot used in Example 1.
Body weights and feed consumption was determined at weekly intervals although the ADG, ADFC and FTG ratio was determined over the 21 day period. […] At the conclusion of the study (6 weeks-of-age), birds were killed and the abdominal fat removed and weighed. The liver and abdominal fat were returned to the carcass which was frozen for proximate analysis as described in […]

## N[C@@H](Cc1cc(I)c(Oc2ccc(O)c(I)c2)c(I)c1)C(=O)O [T3, 3,3',5-triiodo-L-thyronine]
receptor
  metabolic activity of thyroid hormones: most active compounds of formula I
[1]
  growth deficit of hypophysectomized chickens: correct the growth deficit
[2]; 1 ppm T3, 1 ppm T4, 5 ppm TRH or 0.5% PTU in feed, 3 to 6 weeks of age, Group 1, mean ±SEM
  BW (body weight): 1.70 ± .09 kg
[2]; Group 1, dietary
  effect on growth rate and feed efficiency: did not affect growth rate or feed efficiency
[2]; Group 1, dietary, 21 days
  ADFC (average daily feed consumption): 101.1 ± 5.2 g/bird/day
  ADG (average daily weight gain): 48.8 ± 4.3 g/bird/day
  FTG (feed-to-gain ratio): 2.08 ± .08 kg feed/kg gain
[3]
  depressed growth rate in dwarf strains: restored to normal
[4]; 0, 0.25, 1 and 4 ppm
  relative weights of liver (RLW), right breast muscle (RBM), right leg muscle (RLM): not different among treatments
[4]; 0.25 ppm
  abdominal fat weight, reduction: 22.2% and > 20% and 22%
  effect on final body weight: no significant adverse effect in final body weight; also recorded: do not appear to have a statistically significant effect upon final body weight
[4]; 0.25 ppm of feed
  BW (final body weight): 2.42 kg
  RBM (right breast muscle): 5.60 % BW
  RLM (right leg muscle): 0.71 % BW
  RLW (relative liver weight): 2.24 % BW
[4]; 1.0 ppm
  effect on final body weight: significant sacrifice of final body weight
[4]; 1.0 ppm (p<0.05)
  abdominal fat weight, reduction: 26.6%
[4]; 1.0 ppm of feed
  Abdom. Fat: 1.88 % BW
  BW (final body weight): 2.33 kg
  RBM (right breast muscle): 5.36 % BW
  RLM (right leg muscle): 0.76 % BW
  RLW (relative liver weight): 2.14 % BW
[4]; 4.0 ppm
  effect on final body weight: excessive loss of final body weight
[4]; 4.0 ppm (p<0.05)
  abdominal fat weight, reduction: 63.3%
  final body weight, reduction: 22.2%
[4]; 4.0 ppm of feed
  Abdom. Fat: 0.94 % BW
  BW (final body weight): 1.99 kg
  RBM (right breast muscle): 5.81 % BW
  RLM (right leg muscle): 0.75 % BW
  RLW (relative liver weight): 2.18 % BW
[5]; 1 ppm T3, with or without ncGH
  body fat content (% BW), reduction: 16%
[5]; 1 ppm T3, with or without ncGH (P<0.05)
  abdominal fat content, reduction: 28%
[5]; 1 ppm T3 and/or ncGH 100 μg/kg/day, 6 weeks-of-age, N = 12
  Body Weight (BW), final: 1.86 ± .048 kg
[5]; N = 12
  Abdominal Fat, relative weight: 1.86 ± .396 % BW
  Body composition: Ash: 2.40 ± .054 % BW
  Body composition: Fat: 13.2 ± .62 % BW
  Body composition: Protein: 17.3 ± .36 % BW
  Body composition: Water: 65.5 ± .60 % BW
  Liver, relative weight: 2.54 ± .096 % BW
[5]; in vivo
  effect on body water and ash contents: increased
